Values of other authors, collected in US6946461B2, “Imidazolophthalazine derivatives as ligands for GABAA receptors” (Merck Sharp & Dohme Ltd., priority 2000, dated 2005).

Assays:
[1] = system: spatial learning; details: reported by McNamara and Skelton
[2] = in vivo

For `COC(=O)c1cc2c(cn1)[nH]c1ccccc12` [β-CCM], the “spatial learning in the Morris watermaze” value [1] is listed as “enhanced spatial learning” and the proconvulsant effect [2] is listed as “proconvulsant”.
